# Legend:
# [1] = target: T1, TRH receptor binding sites in pituitary (Rattus norvegicus, UniProt Q01717); experiment: Receptor binding assay, [3H][3-Me-His2]-TRH competition, anterior pituitary homogenate; parameters: species or system rat (Sprague-Dawley); conditions: rat anterior pituitary membranes; [3H][3-Me-His2]-TRH 3 to 5 nM; 4-6 °C, 2.5 hours; mean ± S.E.M.
# T1 construct: from tissue; host or cells: rat anterior pituitary membrane pellet (homogenate, 39000 g)
# T1 sequence (Q01717 1-412): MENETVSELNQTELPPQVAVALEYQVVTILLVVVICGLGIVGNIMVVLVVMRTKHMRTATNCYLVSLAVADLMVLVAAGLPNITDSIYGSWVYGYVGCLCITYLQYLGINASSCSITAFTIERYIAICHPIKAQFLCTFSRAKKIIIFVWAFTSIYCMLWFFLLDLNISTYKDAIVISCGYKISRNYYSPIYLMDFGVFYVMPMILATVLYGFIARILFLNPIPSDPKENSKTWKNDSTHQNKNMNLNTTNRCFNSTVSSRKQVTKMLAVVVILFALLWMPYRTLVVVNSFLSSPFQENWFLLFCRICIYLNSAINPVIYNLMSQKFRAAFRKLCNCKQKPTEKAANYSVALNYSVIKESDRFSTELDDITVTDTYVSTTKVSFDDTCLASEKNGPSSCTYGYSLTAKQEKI
# Protocol: (§1) Adult, male Sprague-Dawley rats were obtained from Taconic Farms (Germantown, N.Y.) and housed at controlled temperature (22° C.) and light cycle (12/12 h) with free access to food and water. On the experimental day, six to eight animals were rapidly decapitated and their brains quickly removed and placed on a cold plate. Anterior pituitary and cortex tissue samples were obtained and processed immediately for receptor-binding experiments.
# (§2) All steps of the tissue preparation and binding assays were done on ice. After weighing, pooled tissue samples were homogenized in 25 ml of ice-cold sodium phosphate buffer (0.1M, pH 7.4-7.5), using a Brinkmann Polytron homogenizer (setting 7, 15-20 s). The homogenates were then centrifuged in a refrigerated Sorvall RC5B centrifuge at 39000 g for 30 minutes. The supernatants were discharged and the pellets were resuspended to a concentration of 50 (pituitary) or 100 mg wet weight/ml (ww/ml, cortex) in ice-cold sodium phosphate buffer containing 177 μM Bacitracin.
# (§3) Competition experiments were performed by incubating mixtures of tissue resuspensions, [3H][3-Me-His2]-TRH (87 Ci/mmol, Amersham) in 3 to 5 nM final concentration and increasing amounts of analog in a total volume of 100 μl/vial at 4° to 6° C. for 2.5 hours. In order to limit loss of peptides by adherence to glass, 0.05% bovine serum albumin was included in the assays. Nonspecific binding was determined in the presence of 10 μM TRH. The incubation period was terminated by vacuum filtration of the incubation mixture through Whatman GF/B glass filters, using a 48-well cell harvester (Brandel Inc., Gaithersburg, Md.), followed by four rinses with 4 ml each of ice-cold 0.9% NaCl solution. Filters were then placed in scintillation vials and kept overnight in 5 ml of watermiscible scintillation fluid (Beckman Ready-SolvTM HP) each. Bound radioactivity was measured after thorough shaking of the vials on the following day in an LKB 1218 Rackbeta liquid scintillation counter with automatic correction for tritium quenching. Specific binding was calculated as total binding minus nonspecific binding. Inhibition constants, Ki, were determined according to Cheng and Prusoff (1973) using the radioligand-binding analysis software LIGAND (Elsevier-Biosoft; Munson and Rodbard, 1980). Unless otherwise stated, data in tables and figures represent mean values±S.E.M. (standard error of the mean of separate experiments done in duplicate).
# [2] = test system: TSH release; conditions: relative to TRH; cited from earlier work
# [3] = target: TRH receptor binding sites in cortex; experiment: Receptor binding assay, [3H][3-Me-His2]-TRH competition, cortex homogenate; parameters: species or system rat (Sprague-Dawley); conditions: rat cortex membranes; [3H][3-Me-His2]-TRH 3 to 5 nM; 4-6 °C, 2.5 hours; mean ± S.E.M.
# Protocol: as §1, §2
# as §3, with “The incubation period was terminated by vacuum filtration of the incubation mixture through Whatman GF/B glass filters, using a 48-well cell harvester (Brandel Inc., Gaithersburg, Md.), followed by four rinses with 4 ml each of ice-cold 0.9% NaCl solution.” left out, “Unless otherwise stated, data in tables and figures represent mean values±S.E.M. (standard error of the mean of separate experiments done in duplicate).” left out
# [4] = test system: TRH receptor; conditions: compared with natural TRH; reported by Kruszynski; cited from earlier work
# [5] = test system: TSH release; conditions: compared with natural TRH; reported by Kruszynski; cited from earlier work
Structure (SMILES),Ki [1] [nM],potency in stimulating TSH release compared with TRH [2],Ki [3] [nM],TRH receptor binding affinity [4],TSH releasing activity [5]
"NC(=O)[C@@H]1CCCN1C(=O)[C@H](Cc1c[nH]cn1)NC(=O)[C@@H]1CCC(=S)N1 [Example 1, L-thiopyroglutamyl-L-histidyl-L-oroline amide]",31.9 ± 2.9,,,,
"NC(=S)[C@@H]1CCCN1C(=O)[C@H](Cc1c[nH]cn1)NC(=O)[C@@H]1CCC(=S)N1 [Example 2, L-thiopyroglutamyl-L-histidyl-L-proline thioamide]",85.4 ± 17.8,more potent than TRH,86.1 ± 6.3,,
"NC(=S)[C@@H]1CCCN1C(=O)[C@H](Cc1c[nH]cn1)NC(=O)[C@@H]1CCC(=O)N1 [Example 3, L-pyroglutamyl-L-histidyl-L-proline thioamide]",8 ± 0.2,,93.1 ± 16.5,matching that of natural TRH,matching that of natural TRH
"NC(=O)[C@@H]1CCCN1C(=O)[C@H](Cc1c[nH]cn1)NC(=O)[C@@H]1CCC(=O)N1 [TRH, L-pyroglutamyl-L-histidyl-L-proline-amide, reference compound]",24.1 ± 14.2,,26.1 ± 4.5,,

# Source: patent US5244884A, “Thionated analogues of thyrotropin releasing hormone” (The United States of America as represented by the …, priority 1992, dated 1993)
